# Laboratory results: ChEMBL document CHEMBL2203184, “Synthesis of novel triplet drugs with 1,3,5-trioxazatriquinane skeletons and their pharmacologies. 3: synthesis of novel triplet drugs with the bis(epoxymethano) or bis(dimethylepoxymethano) structure (double-capped triplet)” (Bioorg Med Chem Lett, 2012)
# Key:
# Mus musculus = organism: Mus musculus; assay: Selectivity ratio of Ki for delta opioid receptor in mouse whole brain without cerebellum to Ki for mu opioid receptor in mouse whole brain without cerebellum
# [1] = Selectivity ratio of Ki for mu opioid receptor in mouse whole brain without cerebellum to Ki for kappa opioid receptor in guinea pig cerebellum
# [2] = Selectivity ratio of Ki for delta opioid receptor in mouse whole brain without cerebellum to Ki for kappa opioid receptor in guinea pig cerebellum
# [3] = biological target: Delta-type opioid receptor (Mus musculus, UniProt P32300); assay: Displacement of [3H]DPDPE from delta opioid receptor in mouse whole brain without cerebellum
# [4] = Selectivity ratio of Ki for kappa opioid receptor in guinea pig cerebellum to Ki for mu opioid receptor in mouse whole brain without cerebellum
# Mu-type opioid receptor [5] = biological target: Mu-type opioid receptor (Mus musculus, UniProt P42866); assay: Displacement of [3H]DAMGO from mu opioid receptor in mouse whole brain without cerebellum
# [6] = biological target: Kappa-type opioid receptor (Cavia porcellus, UniProt P41144); assay: Displacement of [3H]U-69,593 from kappa opioid receptor in guinea pig cerebellum
# Mu-type opioid receptor [7] = biological target: T1, Mu-type opioid receptor (Homo sapiens, UniProt P35372); assay: Agonist activity at human mu opioid receptor expressed in CHO cells assessed as [35S]GTPgammaS binding after 2 hrs by liquid scintillation counting relative to DAMGO; assay type: functional, cell-based
# Mu-type opioid receptor [8] = biological target: T1, Mu-type opioid receptor; assay: Agonist activity at human mu opioid receptor expressed in CHO cells assessed as [35S]GTPgammaS binding after 2 hrs by liquid scintillation counting; assay type: functional, cell-based
# [9] = biological target: T2, Kappa-type opioid receptor (Homo sapiens, UniProt P41145); assay: Agonist activity at human kappa opioid receptor expressed in CHO cells assessed as [35S]GTPgammaS binding after 2 hrs by liquid scintillation counting; assay type: functional, cell-based
# [10] = biological target: T2, Kappa-type opioid receptor; assay: Agonist activity at human kappa opioid receptor expressed in CHO cells assessed as [35S]GTPgammaS binding after 2 hrs by liquid scintillation counting relative to U-69,593; assay type: functional, cell-based
# Mu-type opioid receptor (Mus musculus, UniProt P42866), sequence (P42866 whole entry): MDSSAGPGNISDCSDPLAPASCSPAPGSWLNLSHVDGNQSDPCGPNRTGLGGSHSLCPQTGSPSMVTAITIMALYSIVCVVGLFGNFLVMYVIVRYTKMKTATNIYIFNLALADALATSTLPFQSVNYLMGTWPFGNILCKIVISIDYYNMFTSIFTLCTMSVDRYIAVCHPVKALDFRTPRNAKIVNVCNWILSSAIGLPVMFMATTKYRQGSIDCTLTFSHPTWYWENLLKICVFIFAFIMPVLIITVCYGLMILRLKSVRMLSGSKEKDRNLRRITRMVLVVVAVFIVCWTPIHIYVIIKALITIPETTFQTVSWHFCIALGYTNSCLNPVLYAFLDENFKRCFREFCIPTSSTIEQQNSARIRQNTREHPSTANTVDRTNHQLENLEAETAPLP
# Kappa-type opioid receptor (Cavia porcellus, UniProt P41144), sequence (P41144 whole entry): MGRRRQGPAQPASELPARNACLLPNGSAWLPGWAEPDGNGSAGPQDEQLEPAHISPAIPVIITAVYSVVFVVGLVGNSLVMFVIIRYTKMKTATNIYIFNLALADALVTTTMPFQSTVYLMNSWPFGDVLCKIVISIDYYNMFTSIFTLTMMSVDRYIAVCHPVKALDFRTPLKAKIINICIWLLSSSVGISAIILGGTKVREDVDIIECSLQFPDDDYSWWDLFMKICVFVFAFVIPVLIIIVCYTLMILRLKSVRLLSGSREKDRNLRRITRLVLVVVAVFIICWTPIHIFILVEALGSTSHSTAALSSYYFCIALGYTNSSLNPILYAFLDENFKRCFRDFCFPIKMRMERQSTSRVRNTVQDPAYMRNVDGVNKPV
# Delta-type opioid receptor, sequence (P32300 whole entry): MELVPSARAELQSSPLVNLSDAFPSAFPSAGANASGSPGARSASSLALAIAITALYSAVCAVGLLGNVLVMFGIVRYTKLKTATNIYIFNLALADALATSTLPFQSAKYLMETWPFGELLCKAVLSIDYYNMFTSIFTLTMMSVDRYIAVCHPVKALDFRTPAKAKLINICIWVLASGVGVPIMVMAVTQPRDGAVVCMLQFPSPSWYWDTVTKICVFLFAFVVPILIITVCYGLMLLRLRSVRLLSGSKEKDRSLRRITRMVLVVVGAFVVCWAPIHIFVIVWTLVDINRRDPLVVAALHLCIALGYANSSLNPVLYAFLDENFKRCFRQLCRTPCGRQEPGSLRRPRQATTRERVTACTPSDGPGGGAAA
# T1 sequence (P35372 whole entry): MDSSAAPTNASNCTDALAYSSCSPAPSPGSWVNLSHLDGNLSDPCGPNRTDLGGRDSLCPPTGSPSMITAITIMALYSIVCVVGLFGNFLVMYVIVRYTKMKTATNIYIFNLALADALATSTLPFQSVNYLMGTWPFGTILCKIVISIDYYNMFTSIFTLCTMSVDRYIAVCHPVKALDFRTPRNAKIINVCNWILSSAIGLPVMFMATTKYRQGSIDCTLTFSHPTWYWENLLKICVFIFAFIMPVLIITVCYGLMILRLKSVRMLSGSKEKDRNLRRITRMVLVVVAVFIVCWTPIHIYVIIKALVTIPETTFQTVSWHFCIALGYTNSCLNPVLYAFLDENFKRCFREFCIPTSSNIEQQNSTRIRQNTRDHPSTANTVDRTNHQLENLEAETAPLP
# T2 sequence (P41145 whole entry): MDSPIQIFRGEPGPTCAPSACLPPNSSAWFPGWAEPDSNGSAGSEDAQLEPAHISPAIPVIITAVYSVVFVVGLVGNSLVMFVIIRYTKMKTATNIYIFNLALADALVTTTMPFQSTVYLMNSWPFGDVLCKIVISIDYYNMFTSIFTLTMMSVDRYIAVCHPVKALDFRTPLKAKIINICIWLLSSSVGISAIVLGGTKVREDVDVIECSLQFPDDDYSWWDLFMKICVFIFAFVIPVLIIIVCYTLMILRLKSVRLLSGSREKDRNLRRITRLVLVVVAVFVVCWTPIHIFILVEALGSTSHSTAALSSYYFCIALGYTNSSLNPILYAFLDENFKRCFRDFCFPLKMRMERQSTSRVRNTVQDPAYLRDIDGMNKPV
smiles,measurement,setting,value
CN1CC[C@]23c4c5ccc(O)c4O[C@H]2[C@]2(CC[C@@]3(O)[C@H]1C5)O[C@@H]1N3[C@@H](OC1(C)C)C(C)(C)O[C@H]32,Ratio Ki,Mus musculus,3.66
same,Ratio Ki,[1],< 0.0027
same,Ratio Ki,[2],< 0.0098
same,Ki,[3],9.78 nM
same,Ratio Ki,[4],> 375
same,Ki,Mu-type opioid receptor [5],2.67 nM
same,Ki,[6],> 1000 nM
CN1CC[C@]23c4c5ccc(O)c4O[C@H]2[C@]2(CC[C@@]3(O)[C@H]1C5)O[C@H]1N3[C@H](OC1(C)C)C(C)(C)O[C@@H]32,Ratio Ki,Mus musculus,42.8
same,Ratio Ki,[1],< 0.0019
same,Ratio Ki,[2],< 0.079
same,Emax,Mu-type opioid receptor [7],79.1%
same,Ki,[3],79.1 nM
same,Ratio Ki,[4],> 541
same,Ki,Mu-type opioid receptor [5],1.85 nM
same,EC50,Mu-type opioid receptor [8],6 nM
same,Ki,[6],> 1000 nM
CC(C)CN1CC[C@]23c4c5ccc(O)c4O[C@H]2[C@]2(CC[C@@]3(O)[C@H]1C5)O[C@@H]1N3[C@@H](OC1(C)C)C(C)(C)O[C@H]32,Ratio Ki,Mus musculus,4.04
same,Ratio Ki,[1],< 0.134
same,Ratio Ki,[2],< 0.541
same,Ki,[3],541 nM
same,Ratio Ki,[4],> 7.46
same,Ki,Mu-type opioid receptor [5],134 nM
same,Ki,[6],> 1000 nM
CC(C)CN1CC[C@]23c4c5ccc(O)c4O[C@H]2[C@]2(CC[C@@]3(O)[C@H]1C5)O[C@@H]1CO[C@@H]3CO[C@H]2N31,Ratio Ki,Mus musculus,0.798
same,Ratio Ki,[1],< 0.099
same,Ratio Ki,[2],< 0.079
same,Ki,[3],79.1 nM
same,Ratio Ki,[4],> 10.1
same,Ki,Mu-type opioid receptor [5],99.1 nM
same,Ki,[6],> 1000 nM
CC1(C)O[C@H]2N3[C@@H]1O[C@]1(CC[C@@]4(O)[C@H]5Cc6ccc(O)c7c6[C@@]4(CCN5Cc4ccccc4)[C@H]1O7)[C@H]3OC2(C)C,Ratio Ki,Mus musculus,> 2.22
same,Ratio Ki,[1],< 0.45
same,Ki,[3],> 1000 nM
same,Ratio Ki,[4],> 2.22
same,Ki,Mu-type opioid receptor [5],450 nM
same,Ki,[6],> 1000 nM
CN1CC[C@]23c4c5ccc(O)c4O[C@H]2[C@]2(CC[C@@]3(O)[C@H]1C5)O[C@@H]1CO[C@@H]3CO[C@H]2N31,Ratio Ki,Mus musculus,73.1
same,Ratio Ki,[1],0.0214
same,Ratio Ki,[2],1.57
same,Ki,[3],171 nM
same,Ratio Ki,[4],46.6
same,Ki,Mu-type opioid receptor [5],2.34 nM
same,Ki,[6],109 nM
CN1CC[C@]23c4c5ccc(O)c4O[C@H]2[C@]2(CC[C@@]3(O)[C@H]1C5)O[C@H]1CO[C@H]3CO[C@@H]2N31,Ratio Ki,Mus musculus,55.9
same,Ratio Ki,[1],< 0.0024
same,Ratio Ki,[2],< 0.133
same,Ki,[3],133 nM
same,Ratio Ki,[4],> 420
same,Ki,Mu-type opioid receptor [5],2.38 nM
same,Ki,[6],> 1000 nM
CC(C)CN1CC[C@]23c4c5ccc(O)c4O[C@H]2[C@]2(CC[C@@]3(O)[C@H]1C5)O[C@H]1CO[C@H]3CO[C@@H]2N31,Ratio Ki,Mus musculus,9.89
same,Ratio Ki,[1],< 0.086
same,Ratio Ki,[2],< 0.848
same,Ki,[3],848 nM
same,Ratio Ki,[4],> 11.7
same,Ki,Mu-type opioid receptor [5],85.7 nM
same,Ki,[6],> 1000 nM
Oc1ccc2c3c1O[C@H]1[C@]4(CC[C@@]5(O)[C@@H](C2)N(Cc2ccccc2)CC[C@]315)O[C@@H]1CO[C@@H]2CO[C@H]4N21,Ki,[3],> 1000 nM
same,Ki,Mu-type opioid receptor [5],> 1000 nM
same,Ki,[6],> 1000 nM
CC1(C)O[C@@H]2N3[C@H]1O[C@]1(CC[C@@]4(O)[C@H]5Cc6ccc(O)c7c6[C@@]4(CCN5CC4CC4)[C@H]1O7)[C@@H]3OC2(C)C,Ratio Ki,Mus musculus,4.11
same,Ratio Ki,[1],0.221
same,Ratio Ki,[2],0.909
same,Ki,[3],22 nM
same,Ratio Ki,[4],4.52
same,Ki,Mu-type opioid receptor [5],5.35 nM
same,Ki,[6],24.2 nM
CC1(C)O[C@@H]2N3[C@H]1O[C@]1(CC[C@@]4(O)[C@H]5Cc6ccc(O)c7c6[C@@]4(CCN5Cc4ccccc4)[C@H]1O7)[C@@H]3OC2(C)C,Ki,[3],> 1000 nM
same,Ki,Mu-type opioid receptor [5],> 1000 nM
same,Ki,[6],> 1000 nM
Oc1ccc2c3c1O[C@H]1[C@]4(CC[C@@]5(O)[C@@H](C2)N(CC2CC2)CC[C@]315)O[C@H]1CO[C@H]2CO[C@@H]4N21,Ratio Ki,Mus musculus,11.5
same,Ratio Ki,[1],1.15
same,Ratio Ki,[2],13.2
same,Ki,[3],78.6 nM
same,Ratio Ki,[4],0.869
same,Ki,Mu-type opioid receptor [5],6.85 nM
same,Ki,[6],5.95 nM
CC1(C)O[C@H]2N3[C@@H]1O[C@]1(CC[C@@]4(O)[C@H]5Cc6ccc(O)c7c6[C@@]4(CCN5CC4CC4)[C@H]1O7)[C@H]3OC2(C)C,Ratio Ki,Mus musculus,33.6
same,Ratio Ki,[1],0.271
same,Ratio Ki,[2],9.1
same,Ki,[3],71.8 nM
same,Ratio Ki,[4],3.69
same,Ki,Mu-type opioid receptor [5],2.14 nM
same,Ki,[6],7.89 nM
CC(C)CN1CC[C@]23c4c5ccc(O)c4O[C@H]2[C@]2(CC[C@@]3(O)[C@H]1C5)O[C@H]1N3[C@H](OC1(C)C)C(C)(C)O[C@@H]32,Ratio Ki,Mus musculus,> 11.4
same,Ratio Ki,[1],< 0.088
same,Ki,[3],> 1000 nM
same,Ratio Ki,[4],> 11.4
same,Ki,Mu-type opioid receptor [5],88.1 nM
same,Ki,[6],> 1000 nM
Oc1ccc2c3c1O[C@H]1[C@]4(CC[C@@]5(O)[C@@H](C2)N(Cc2ccccc2)CC[C@]315)O[C@H]1CO[C@H]2CO[C@@H]4N21,Ratio Ki,Mus musculus,0.145
same,Ratio Ki,[1],< 0.581
same,Ratio Ki,[2],< 0.084
same,Ki,[3],84 nM
same,Ratio Ki,[4],> 1.72
same,Ki,Mu-type opioid receptor [5],581 nM
same,Ki,[6],> 1000 nM
Oc1ccc2c3c1O[C@H]1[C@]4(CC[C@@]5(O)[C@@H](C2)N(CC2CC2)CC[C@]315)O[C@@H]1CO[C@@H]2CO[C@H]4N21,Ratio Ki,Mus musculus,11.5
same,Ratio Ki,[1],2.24
same,Ratio Ki,[2],25.9
same,EC50,[9],25 nM
same,Ki,[3],99.8 nM
same,Ratio Ki,[4],0.446
same,Emax,[10],70%
same,Ki,Mu-type opioid receptor [5],8.65 nM
same,Ki,[6],3.86 nM
